Laboratory results as given in patent US20240376094A2, “SELECTIVE BCL-XL PROTAC COMPOUNDS AND METHODS OF USE” (Les Laboratoires Servier, priority 2021, published 2024).

Experiments:
[1] = tested on: EBC-1 lung cancer cell line; assay: EBC-1 cell proliferation, CellTiter-Glo assay; format: cell-based; settings: Homo sapiens, 120 h; Ebc-1 cell viability, CTG assay, 5 days of treatment; read-out: CTG 5 day Ebc1 GI50
Method in brief: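 CellTiter-Glo read-out after 5-day compound treatment, normalised to untreated cells, with GI50 derived by four-parameter logistic regression. Ten concentrations spanning 0.508 nM–10 μM were added to 1000 EBC-1 cells per well the day after seeding. Assays required at least one cell doubling versus Day 0.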

[2] = target: T1, HiBiT-tagged BCL-xL (Homo sapiens, UniProt Q07817); assay: NCI-H1650 BCL-xL protein levels, Nano-Glo HiBiT Lytic Detection; format: cell-based; settings: NCI-H1650 expressing HiBiT-tagged BCL-xL, overnight incubation, read-out: Bcl-xl HIBIT NCIH1650 DC50
T1 construct: expressed in transfected cells; host or cells: NCI-H1650 (ATCC No. CRL-5883), engineered HiBiT cell line
T1 sequence (Q07817 whole entry): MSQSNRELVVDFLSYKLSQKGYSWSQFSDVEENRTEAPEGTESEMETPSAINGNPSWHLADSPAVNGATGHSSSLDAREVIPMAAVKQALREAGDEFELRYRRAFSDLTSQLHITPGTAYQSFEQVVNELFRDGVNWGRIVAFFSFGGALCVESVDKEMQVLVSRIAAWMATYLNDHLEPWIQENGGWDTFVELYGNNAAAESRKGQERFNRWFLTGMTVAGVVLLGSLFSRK
Method in brief: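 HiBiT luminescence after cell lysis with LgBiT/furimazine reagent reported BCL-xL levels, expressed relative to untreated wells and fitted with a four-parameter logistic equation. Engineered NCI-H1650 cells were exposed overnight at 37° C to compound at final 0.508 nM-10 μM (10 points, triplicate plates).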

GI50 [1]: 1 nM
DC50 [2]: 0.3 nM
Compound: Cc1ncsc1-c1ccc([C@H](C)NC(=O)[C@@H]2C[C@@H](O)CN2C(=O)[C@@H](NC(=O)CCCCCCCCCCCN2CCN(CC#Cc3ccc(OCCCc4sc(N5CCCc6c5nnc(Nc5nc7ccccc7s5)c6C)nc4C(=O)O)c(F)c3)CC2)C(C)(C)C)cc1 [Example 51, 2-(3-(benzo[d]thiazol-2-ylamino)-4-methyl-6,7-dihydropyrido [2,3-c]pyridazin-8(5H)-yl)-5-(3-(2-fluoro-4-(3-(4-(12-(((S)-1-((2S,4R)-4-hydroxy-2-(((S)-1-(4-(4-methylthiazol-5-yl)phenyl)ethyl)carbamoyl)pyrrolidin-1-yl)-3,3-dimethyl-1-oxobutan-2-yl)amino)-12-oxododecyl)piperazin-1-yl)prop-1-yn-1-yl)phenoxy)propyl)thiazole-4-carboxylic acid]
